Where “and” joins values, the source holds several entries; their conditions need not be identical. Equal entries are not always repeated.
How the values were obtained:
HEK293 cells [1] = assay: Cytotoxicity by MTT assay; assay type: cell-based, human
Description: (§1) Exponentially growing HEK293, MRC5 and A549 cells were plated at cell densities 3000 cells per well in 96-well tissue culture plates. […] Cytotoxicity was measured by MTT assay according to the manufacturer's instructions (Promega, Madison, Wis., USA).

MRC5 cells [2] = assay: Cytotoxicity by MTT assay; assay type: cell-based, human
Description: as §1

A549 cells [3] = assay: Cytotoxicity by MTT assay; assay type: cell-based, human
Description: as §1

[4] = Cytotoxicity by MTT assay; assay type: cell-based, human; conditions: human
Description: as §1

[5] = test system: melanoma bearing Balb/c mice; conditions: 300 mg/kg oral (Nimesh et al. 2015); cited from earlier work
HEK293 cells [6] = assay: Clonogenic survival, DMF; assay type: cell-based, human; conditions: HEK293, 50 μM DMA 2 h before radiation
Description: (§2) Exponentially growing U87, HEK293, MRC5 and A549 cells were treated with 50 μM DMA for 2 h and irradiated with 0, 1, 2, 5, 8 and 10 Gy of radiation dose as indicated at RT and trypsinized immediately at 37° C. Cells were seeded into 60 mm dishes in triplicate at various cell densities aiming approximately 100 colonies/dish. Percentage radioprotection was calculated by following formula % of Protection in radiation treated cells=(SFDMA+radiaion)−(SFRadiaion)/SFControl×100 Where SF is survival fraction in respective conditions. Dose modification factor (DMF) was calculated as ratio of 50% survival in DMA+radiation to 50% survival in radiation only.

MRC5 cells [7] = assay: Clonogenic survival, DMF; assay type: cell-based, human; conditions: MRC5, 50 μM DMA 2 h before radiation
Description: as §2

A549 cells [8] = assay: Clonogenic survival, DMF; assay type: cell-based, human; conditions: A549, 50 μM DMA 2 h before radiation
Description: as §2

U87 cells = assay: Clonogenic survival, DMF; assay type: cell-based, human; conditions: U87, 50 μM DMA 2 h before radiation
Description: as §2

[9] = test system: Balb/c mice intestine tissue; assay: Gene expression at mRNA level by RT-PCR; assay type: in vivo, mouse
Description: The cDNA generated from total RNA was amplified using 1 μl of the reaction products in 10 μl with respective primers for 45 cycles following standard RT-PCR cycle by SYBR green dye. Transcript levels were calculated according to the 2^−ΔΔCt method, normalized to the expression of GAPDH, and expressed as fold change compared with control.

HEK293 cells [10] = assay: Proliferation kinetics in presence of inhibitors; assay type: cell-based, human
Description: HEK293 cells post 50 μM LY294002 (PI3K/Akt inhibitor) and 10 μM PS1145 (NFκB inhibitor) treatment were treated with 50 μM DMA and 5 Gy radiation. Same experiment was done with control (no inhibitor), only LY294002 and only PS1145 treated HEK cells. Percentage (%) radioprotection of cells at 24, 48 and 72 h was calculated by following formula— % growth of Radiation treated cells=(CNRadiation/CNControl)×100. % growth of DMA+Radiation treated cells=(CNDMA+Radiaion/CNControl)×100. % Radioprotection=% growth of DMA+Radiation treated cells−% growth of Radiation treated cells where CN is the cell number.

[11] = test system: Akt in MRC5 and A549 cells; assay: Akt kinase assay in cell lines; assay type: cell-based, human; conditions: DMA+Radiation vs control and radiation
Description: Akt kinase activity was determined using Akt Kinase Assay Kit (Nonradioactive) (Cell Signaling Technology, Cat. #9840) following the manufacturer's instructions.

[12] = DMA pre-treated to radiation group

Structure (SMILES): COc1ccc(-c2nc3cc(-c4nc5cc(N6CCN(C)CC6)ccc5[nH]4)ccc3[nH]2)cc1OC [DMA, 5-(4-methylpiperazin-1-yl)-2-[2′-(3,4-dimethoxyphenyl)-5′-benzimidazolyl]benzimidazole]
- Concentration at which DMA was cytotoxic (HEK293 cells [1]; HEK293): 50 µM
- IC50 at short term incubation (HEK293 cells [1]; HEK293, 50 μM DMA, 2 h): no observable IC50
- IC50 at short term treatment (HEK293 cells [1]; HEK293, DMA for 2 h): no observable IC50
- IC50 at short term incubation (MRC5 cells [2]; MRC5, 50 μM DMA, 2 h): no observable IC50
- IC50 at short term treatment (MRC5 cells [2]; MRC5, DMA at 509 μM for 2 h): no observable IC50
- IC50 at short term incubation (A549 cells [3]; A549, 50 μM DMA, 2 h): no observable IC50
- IC50 (cytotoxicity) (A549 cells [3]; A549, 1-100 μM, up to 72 h): could not be achieved
- IC50 at short term treatment (A549 cells [3]; A549, DMA at 509 μM for 2 h): no observable IC50
- IC50 ([4]; A549 cells, A549, 1-100 μM, up to 72 h): > 100 µM
- IC50 at 24 h ([4]; MRC5 cells, MRC-5 cells, 24 h): 92.5 µM
- Protection of tumor tissues [5]: no protection to tumor tissues
- DMF at 50% survival (HEK293 cells [6]): 1.44
- DMF at 50% survival (MRC5 cells [7]): 1.1
- DMF at 50% survival (A549 cells [8]): 1.38
- DMF at 50% survival (U87 cells): 1.067 and 1.07
- Akt mRNA expression ([9]; DMA 50 mg/kg i.v. + 8Gy TBI vs control): higher expression
- Bax, Bcl-2 and p21 mRNA expression level ([9]; DMA by itself): did not increase
- Gadd45α mRNA expression ([9]; DMA by itself): significantly increased
- Bax gene expression [9, 12]: no significant downregulation
- Bcl-2 mRNA level [9, 12]: insignificant increase
- p21 mRNA expression ([9]; DMA pretreatment 50 mg/kg i.v. to radiation vs radiation): significantly downregulated
- Gadd45α mRNA expression ([9]; DMA pretreatment to radiation): augmented
- % radioprotection by DMA (HEK293 cells [10]; LY294002 and PS1145 simultaneously, 24 h): 3%
- % radioprotection by DMA (HEK293 cells [10]; LY294002 and PS1145 simultaneously, 48 h): 2.2%
- % radioprotection by DMA (HEK293 cells [10]; LY294002 and PS1145 simultaneously, 72 h): 2%
- % radioprotection by DMA (HEK293 cells [10]; LY294002 treated cells, 24 h): 15%
- % radioprotection by DMA (HEK293 cells [10]; LY294002 treated cells, 48 h): 10%
- % radioprotection by DMA (HEK293 cells [10]; LY294002 treated cells, 72 h): 4%
- % radioprotection by DMA (HEK293 cells [10]; PS1145 treated cells, 24 h): 4%
- % radioprotection by DMA (HEK293 cells [10]; PS1145 treated cells, 48 h): 3.5%
- % radioprotection by DMA (HEK293 cells [10]; PS1145 treated cells, 72 h): 2.4%
- % radioprotection by DMA (HEK293 cells [10]; no inhibitor, 50 μM DMA, 5 Gy, 24 h): 40%
- % radioprotection by DMA (HEK293 cells [10]; no inhibitor, 50 μM DMA, 5 Gy, 48 h): 35%
- % radioprotection by DMA (HEK293 cells [10]; no inhibitor, 50 μM DMA, 5 Gy, 72 h): 16%
- Akt kinase activity [11]: higher Akt kinase activity
